The test system of this assay is BDF1 mice, P388 leukemia ip, median survival T/C. The assay is described as follows: NCI In Vivo Anticancer Drug Screen. Data for tumor model P388 Leukemia (intraperitoneal) in B6D2F1 (BDF1) mice. Particulars: endpoint: median survival time, higher = longer survival. Summed up: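 Each value expresses how treatment altered survival: treated-mouse outcome over vehicle-mouse outcome, both groups bearing the transplanted tumour.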

[1] abbreviates: dose: 25.0 mg/kg/injection, schedule: Q01DX009 (ip), vehicle: saline.
Where [2] appears, read: dose: 12.5 mg/kg/injection, schedule: Q01DX009 (ip), vehicle: Klucel (hydroxypropylcellulose) (HPC).
[3] abbreviates: dose: 25.0 mg/kg/injection, schedule: Q01DX009 (ip), vehicle: Klucel (hydroxypropylcellulose) (HPC).
Where [4] appears, read: dose: 50.0 mg/kg/injection, schedule: Q01DX009 (ip), vehicle: Klucel (hydroxypropylcellulose) (HPC).
Where [5] appears, read: dose: 100.0 mg/kg/injection, schedule: Q01DX009 (ip), vehicle: Klucel (hydroxypropylcellulose) (HPC).
Where [6] appears, read: dose: 200.0 mg/kg/injection, schedule: Q01DX009 (ip), vehicle: Klucel (hydroxypropylcellulose) (HPC).
Setting [7] is: dose: 100.0 mg/kg/injection, schedule: Q01DX009 (ip), vehicle: saline with Tween-80.
The mark [8] stands for this setting: dose: 200.0 mg/kg/injection, schedule: Q01DX009 (ip), vehicle: saline with Tween-80.
Where [9] appears, read: dose: 50.0 mg/kg/injection, schedule: Q01DX009 (ip), vehicle: saline.
[10] abbreviates: dose: 100.0 mg/kg/injection, schedule: Q01DX009 (ip), vehicle: saline.
Setting [11] is: dose: 50.0 mg/kg/injection, schedule: Q04DX003 (ip), vehicle: saline.
[12] abbreviates: dose: 100.0 mg/kg/injection, schedule: Q04DX003 (ip), vehicle: saline.
Where [13] appears, read: dose: 200.0 mg/kg/injection, schedule: Q04DX003 (ip), vehicle: saline.
[14] abbreviates: dose: 50.0 mg/kg/injection, schedule: Q01DX009 (ip), vehicle: saline with Tween-80.

Several values for one entry are separate records, joined by “and”; a condition that tells them apart may be missing. Equal entries are not always repeated. Toxic doses and inconclusive results are not listed.

From PubChem BioAssay AID328 (DTP/NCI, 2004) come the findings set out here.

As for `[O-]/C(CCCl)=N\[n+]1c2c(nc3ccccc31)-c1cccc3cccc-2c13`, the T/C reads like this: (dose: 12.5 mg/kg/injection, schedule: Q01DX001 (ip), vehicle: Klucel (hydroxypropylcellulose) (HPC)) 102 % of control; (dose: 25.0 mg/kg/injection, schedule: Q01DX001 (ip), vehicle: Klucel (hydroxypropylcellulose) (HPC)) 100 % of control; (dose: 50.0 mg/kg/injection, schedule: Q01DX001 (ip), vehicle: Klucel (hydroxypropylcellulose) (HPC)) 102 % of control.

As to `Cc1cccc[n+]1CCC(N)=O`, the T/C was 92 % of control (dose: 6.25 mg/kg/injection, schedule: Q01DX009 (ip), vehicle: saline); 117 % of control (dose: 12.5 mg/kg/injection, schedule: Q01DX009 (ip), vehicle: saline); 103 % of control under setting [1].

On to `O=C(CCl)Nc1ccc([As](=O)(O)O)cc1`, for which the T/C is, setting by setting: under setting [2], 100 % of control; under setting [3], 100 % of control; under setting [4], 90 % of control.

As for `COc1cccc(NC(=O)N2CCCCC2)c1`, the T/C runs as follows: under setting [3], 111 % of control; under setting [4], 111 % of control; under setting [5], 114 % of control; under setting [6], 114 % of control.

Regarding `COc1ccc(CNCCNCc2ccc(OC)cc2)cc1`, the T/C runs as follows: (dose: 12.5 mg/kg/injection, schedule: Q01DX009 (ip), vehicle: water) 98 % of control; (dose: 25.0 mg/kg/injection, schedule: Q01DX009 (ip), vehicle: water) 100 % of control; (dose: 25.0 mg/kg/injection, schedule: Q04DX003 (ip), vehicle: water) 95 % of control; (dose: 50.0 mg/kg/injection, schedule: Q01DX009 (ip), vehicle: water) 115 % of control; (dose: 50.0 mg/kg/injection, schedule: Q04DX003 (ip), vehicle: water) 95 % of control; (dose: 100.0 mg/kg/injection, schedule: Q01DX009 (ip), vehicle: water) 92 % of control and 107 % of control. Also, where the note is “dose: 100.0 mg/kg/injection, schedule: Q04DX003 (ip), vehicle: water”, the T/C is 100 % of control and 109 % of control.

For `Clc1ccc(NC2=NCCN=C(Nc3ccc(Cl)c(Cl)c3)SS2)cc1Cl`, the T/C is 100 % of control under setting [4], 92 % of control under setting [5] and 88 % of control under setting [6].

On to `O=C(Nc1ccc(C2=NCCN2)cc1)c1ccc(C(=O)Nc2ccc(C3=NCCN3)cc2)c([N+](=O)[O-])c1`, for which the T/C is 163 % of control (dose: 6.0 mg/kg/injection, schedule: Q01DX010 (ip), vehicle: saline); 168 % of control (dose: 8.0 mg/kg/injection, schedule: Q01DX010 (ip), vehicle: saline); 113 % of control (dose: 12.0 mg/kg/injection, schedule: Q01DX010 (ip), vehicle: saline).

As for `Cc1cc(N=NC(N)=S)c2ccccc2c1O`, the T/C by setting is: under setting [7], 103 % of control; under setting [8], 100 % of control.

Turning to `O=C(O)C1(O)C(Cl)(Cl)C(Cl)=C(Cl)C1(Cl)Cl`, the T/C by setting is: under setting [1], 118 % of control; under setting [9], 122 % of control; under setting [10], 118 % of control.

With `BrCCCC[P+](c1ccccc1)(c1ccccc1)c1ccccc1`, the T/C runs as follows: (dose: 6.25 mg/kg/injection, schedule: Q01DX010 (ip), vehicle: saline) 113 % of control; (dose: 12.5 mg/kg/injection, schedule: Q01DX010 (ip), vehicle: saline) 118 % of control.

For `O=S(=O)(Nc1ccc(NS(=O)(=O)c2ccccc2)cc1)c1ccccc1`, the T/C runs as follows: (dose: 3.12 mg/kg/injection, schedule: Q01DX009 (ip), vehicle: Klucel (hydroxypropylcellulose) (HPC)) 100 % of control; (dose: 6.25 mg/kg/injection, schedule: Q01DX009 (ip), vehicle: Klucel (hydroxypropylcellulose) (HPC)) 100 % of control; under setting [2], 95 % of control; under setting [5], 96 % of control.

For `O=C(N/N=C\c1ccc(N(CCCl)CCCl)cc1)c1cccnc1`, the T/C was 112 % of control (dose: 100.0 mg/kg/injection, schedule: Q01DX009 (ip), vehicle: gum acacia) and 172 % of control (dose: 200.0 mg/kg/injection, schedule: Q01DX009 (ip), vehicle: gum acacia).

`Cc1cnc2nc(N)[nH]c(=O)c2c1`: the T/C is 100 % of control (dose: 37.5 mg/kg/injection, schedule: Q04DX003 (ip), vehicle: saline sonified); 110 % of control (dose: 75.0 mg/kg/injection, schedule: Q04DX003 (ip), vehicle: saline sonified); 100 % of control (dose: 150.0 mg/kg/injection, schedule: Q04DX003 (ip), vehicle: saline sonified).

Take `CC(O)CN1CCCC1` (configuration not stated): the T/C runs as follows: under setting [11], 91 % of control; under setting [12], 104 % of control; under setting [13], 104 % of control.

Consider `COC(=O)c1ccc(CSc2ccccc2NC(=S)Nc2cccc(SC)c2)o1`, for which the T/C by setting is: under setting [14], 90 % of control; under setting [7], 92 % of control; under setting [8], 90 % of control.

On to `CC[C@@]1(O)C[C@H](OC2CC(N(C)C)C(O)C(C)O2)c2c(O)c3c(c(O)c2[C@H]1OC1CC(N(C)C)C(O)C(C)O1)C(=O)c1cccc(O)c1C3=O` (some centres not stated), for which the T/C (dose: 0.25 mg/kg/injection, schedule: Q01DX010 (ip), vehicle: saline) was 100 % of control.

As to `CC(C)CSC(C)C`, the T/C is 110 % of control under setting [1], 110 % of control under setting [9] and 110 % of control under setting [10].

Regarding `CN(N=O)C(=O)NC(C=O)C(O)C(O)C(O)CO` (configuration not stated), the T/C (dose: 25.0 mg/kg/injection, schedule: Q01DX010 (ip), vehicle: saline) was 113 % of control.

For `COc1cccc2c1C(=O)c1c(O)c3c(c(O)c1C2=O)CC(O)(/C(C)=N/NC(=O)CCCCCCC(=O)N/N=C(\C)C1(O)Cc2c(O)c4c(c(O)c2C(OC2CC(N)C(O)C(C)O2)C1)C(=O)c1c(OC)cccc1C4=O)CC3OC1CC(N)C(O)C(C)O1` (configuration not stated), the T/C was 165 % of control (dose: 2.0 mg/kg/injection, schedule: Q01DX009 (ip), vehicle: water) and 201 % of control (dose: 4.0 mg/kg/injection, schedule: Q01DX009 (ip), vehicle: water).

As for `O=C1C=CC(=O)N1c1ccc(-c2nc3ccccc3o2)cc1`, the T/C was 121 % of control (dose: 50.0 mg/kg/injection, schedule: Q01DX005 (ip), vehicle: saline with Tween-80) and 100 % of control (dose: 100.0 mg/kg/injection, schedule: Q01DX005 (ip), vehicle: saline with Tween-80).

For the compound `O=c1[nH]cnc2c(C3OC(CO)C(O)C3O)[nH]nc12` (configuration not stated), the T/C runs as follows: (dose: 10.0 mg/kg/injection, schedule: Q01DX009 (ip), vehicle: saline) 91 % of control; (dose: 20.0 mg/kg/injection, schedule: Q01DX009 (ip), vehicle: saline) 100 % of control; (dose: 40.0 mg/kg/injection, schedule: Q01DX009 (ip), vehicle: saline) 91 % of control.

Take `CCOC(=O)c1nc2nc(Cl)c(Cl)nc2[nH]1`: the T/C reads like this: (dose: 4.0 mg/kg/injection, schedule: Q01DX009 (ip), vehicle: saline) 90 % of control; (dose: 25.0 mg/kg/injection, schedule: Q04DX003 (ip), vehicle: saline) 93 % of control; (dose: 32.0 mg/kg/injection, schedule: Q01DX009 (ip), vehicle: saline) 89 % of control; under setting [11], 98 % of control; under setting [12], 102 % of control; under setting [13], 93 % of control.

For `CCc1nnc2c3cc4ccccc4n3cnn12`, the T/C reads like this: under setting [14], 86 % of control; under setting [7], 87 % of control; under setting [8], 103 % of control.

On to `CCCNC(=O)Oc1c(C(C)C)ccc(C)c1Cl`, for which the T/C is 100 % of control (dose: 100.0 mg/kg/injection, schedule: Q04DX003 (ip), vehicle: saline with Tween-80); 90 % of control (dose: 200.0 mg/kg/injection, schedule: Q04DX003 (ip), vehicle: saline with Tween-80); 104 % of control (dose: 400.0 mg/kg/injection, schedule: Q04DX003 (ip), vehicle: saline with Tween-80).
